According to paper PMC5668067, “Phase I dose-escalation study of the c-Met tyrosine kinase inhibitor SAR125844 in Asian patients with advanced solid tumors, including patients with MET-amplified gastric cancer” (Oncotarget, 2017):
Where two headings read alike, the source gives them in different places.

Experiments:
[1] = phase I pharmacokinetics in blood (dried blood spot, LC-MS/MS, noncompartmental analysis); format: in vivo, human; details: for fold increase in AUC0–168: 2.19-fold increase in dose (260 to 570 mg/m^2); for Cmax: blood; for AUC(0-t): read-out: AUC0–168
Description: Blood samples for pharmacokinetic analysis were acquired using dried blood-spot technology on days 1 and 22 of cycle 1 at several time points before, during, and after infusion (up to 168 hours after administration). Drug concentrations were determined by a validated method of liquid chromatography and tandem mass spectrometry (limit of quantification 2 ng/mL). Pharmacokinetic parameters were calculated using a noncompartmental analysis and included the maximum observed blood concentration (Cmax), AUC from 0 to infinity, AUC0–168, CL, CL after repeated administrations (CLss), volume of distribution at steady state (Vss), and the half-life associated with the terminal slope (t1/2z).

[2] = system: xenograft models of MET-amplified human gastric tumors; set-up: method as in PMID 25504634; details: cited from earlier work
[3] = human, whole blood (dried blood spot), intravenous, 260 mg/m2, 260 mg/m^2, cycle 1 Day 22, N = 2, mean
[4] = human, whole blood (dried blood spot), intravenous, 340 mg/m2, 340 mg/m^2, cycle 1 Day 1, N = 2, mean
[5] = human, whole blood (dried blood spot), intravenous, 340 mg/m2, 340 mg/m^2, cycle 1 Day 22, N = 3, mean ± SD
[6] = human, whole blood (dried blood spot), intravenous, 440 mg/m2, 440 mg/m^2, cycle 1 Day 1, n = 2, mean
[7] = human, whole blood (dried blood spot), intravenous, 440 mg/m2, 440 mg/m^2, cycle 1 Day 22, N = 3, mean ± SD
[8] = human, whole blood (dried blood spot), intravenous, 570 mg/m2, 570 mg/m^2, cycle 1 Day 1, n = 20, mean ± SD
[9] = human, whole blood (dried blood spot), intravenous, 570 mg/m2, 570 mg/m^2, cycle 1 Day 22, N = 17, mean ± SD
[10] = two xenograft models, intravenous single-agent

O=C(NCCN1CCOCC1)Nc1nc2ccc(Sc3nnc4ccc(-c5ccc(F)cc5)nn34)cc2s1 [SAR125844]
fold increase in AUC0–168 ([1]; day 1): 3.00 fold
fold increase in AUC0–168 ([1]; day 22): 2.69 fold
accumulation between days 1 and 22 ([1]; four repeated once-weekly infusions): no accumulation
Cmax ([1]; human, whole blood (dried blood spot), intravenous, 260 mg/m2, 260 mg/m^2, cycle 1 Day 1, N = 6, mean ± SD): 4140 ± 1070 ng/mL
AUC(0-t) ([1]; human, whole blood (dried blood spot), intravenous, 260 mg/m2, 260 mg/m^2, cycle 1 Day 1, n = 5, mean ± SD): 11800 ± 2960 ng·h/mL
clearance ([1]; human, whole blood (dried blood spot), intravenous, 260 mg/m2, 260 mg/m^2, cycle 1 Day 1, n = 5, mean ± SD, read-out: CL (converted)): 608 mL/min
Vd ([1]; human, whole blood (dried blood spot), intravenous, 260 mg/m2, 260 mg/m^2, cycle 1 Day 1, n = 5, mean ± SD, read-out: Vss): 232 ± 57.5 L
half-life ([1]; human, whole blood (dried blood spot), intravenous, 260 mg/m2, 260 mg/m^2, cycle 1 Day 1, n = 5, mean ± SD, read-out: t1/2z (converted)): 12.6 ± 6.05 h
AUC [1, 3]: 12600 ng·h/mL
Cmax [1, 3]: 3550 ng/mL
AUC(0-t) [1, 3]: 12700 ng·h/mL
clearance ([1]; human, whole blood (dried blood spot), intravenous, 260 mg/m2, 260 mg/m^2, cycle 1 Day 22, N = 2, mean, read-out: CL (converted)): 533 mL/min
Vd ([1]; human, whole blood (dried blood spot), intravenous, 260 mg/m2, 260 mg/m^2, cycle 1 Day 22, N = 2, mean, read-out: Vss): 186 L
half-life ([1]; human, whole blood (dried blood spot), intravenous, 260 mg/m2, 260 mg/m^2, cycle 1 Day 22, N = 2, mean, read-out: t1/2z (converted)): 12.6 h
AUC ([1]; human, whole blood (dried blood spot), intravenous, 260 mg/m2, AUC from 0 to infinity, 260 mg/m^2, cycle 1 Day 1, n = 5, mean ± SD): 11800 ± 2950 ng·h/mL
AUC [1, 4]: 16400 ng·h/mL
Cmax [1, 4]: 4290 ng/mL
AUC(0-t) [1, 4]: 16400 ng·h/mL
clearance ([1]; human, whole blood (dried blood spot), intravenous, 340 mg/m2, 340 mg/m^2, cycle 1 Day 1, N = 2, mean, read-out: CL (converted)): 565 mL/min
Vd ([1]; human, whole blood (dried blood spot), intravenous, 340 mg/m2, 340 mg/m^2, cycle 1 Day 1, N = 2, mean, read-out: Vss): 246 L
half-life ([1]; human, whole blood (dried blood spot), intravenous, 340 mg/m2, 340 mg/m^2, cycle 1 Day 1, N = 2, mean, read-out: t1/2z (converted)): 12.9 h
AUC [1, 5]: 16500 ± 2390 ng·h/mL
Cmax [1, 5]: 4700 ± 976 ng/mL
AUC(0-t) [1, 5]: 16500 ± 2390 ng·h/mL
clearance ([1]; human, whole blood (dried blood spot), intravenous, 340 mg/m2, 340 mg/m^2, cycle 1 Day 22, N = 3, mean ± SD, read-out: CL (converted)): 557 mL/min
Vd ([1]; human, whole blood (dried blood spot), intravenous, 340 mg/m2, 340 mg/m^2, cycle 1 Day 22, N = 3, mean ± SD, read-out: Vss): 291 ± 52.6 L
half-life ([1]; human, whole blood (dried blood spot), intravenous, 340 mg/m2, 340 mg/m^2, cycle 1 Day 22, N = 3, mean ± SD, read-out: t1/2z (converted)): 20.6 ± 4.69 h
Cmax ([1]; human, whole blood (dried blood spot), intravenous, 440 mg/m2, 440 mg/m^2, cycle 1 Day 1, N = 3, mean ± SD): 6390 ± 1010 ng/mL
AUC [1, 6]: 22000 ng·h/mL
AUC(0-t) [1, 6]: 22100 ng·h/mL
clearance ([1]; human, whole blood (dried blood spot), intravenous, 440 mg/m2, 440 mg/m^2, cycle 1 Day 1, n = 2, mean, read-out: CL (converted)): 530 mL/min
Vd ([1]; human, whole blood (dried blood spot), intravenous, 440 mg/m2, 440 mg/m^2, cycle 1 Day 1, n = 2, mean, read-out: Vss): 202 L
half-life ([1]; human, whole blood (dried blood spot), intravenous, 440 mg/m2, 440 mg/m^2, cycle 1 Day 1, n = 2, mean, read-out: t1/2z (converted)): 12.1 h
AUC [1, 7]: 25400 ± 5300 ng·h/mL
Cmax [1, 7]: 5840 ± 1420 ng/mL
AUC(0-t) [1, 7]: 25300 ± 5220 ng·h/mL
clearance ([1]; human, whole blood (dried blood spot), intravenous, 440 mg/m2, 440 mg/m^2, cycle 1 Day 22, N = 3, mean ± SD, read-out: CL (converted)): 503 mL/min
Vd ([1]; human, whole blood (dried blood spot), intravenous, 440 mg/m2, 440 mg/m^2, cycle 1 Day 22, N = 3, mean ± SD, read-out: Vss): 490 ± 366 L
half-life ([1]; human, whole blood (dried blood spot), intravenous, 440 mg/m2, 440 mg/m^2, cycle 1 Day 22, N = 3, mean ± SD, read-out: t1/2z (converted)): 27.5 ± 8.24 h
Cmax ([1]; human, whole blood (dried blood spot), intravenous, 570 mg/m2, 570 mg/m^2, cycle 1 Day 1, N = 21, mean ± SD): 6570 ± 1680 ng/mL
AUC [1, 8]: 36200 ± 11800 ng·h/mL
AUC(0-t) [1, 8]: 36100 ± 11800 ng·h/mL
clearance ([1]; human, whole blood (dried blood spot), intravenous, 570 mg/m2, 570 mg/m^2, cycle 1 Day 1, n = 20, mean ± SD, read-out: CL (converted)): 463 mL/min
Vd ([1]; human, whole blood (dried blood spot), intravenous, 570 mg/m2, 570 mg/m^2, cycle 1 Day 1, n = 20, mean ± SD, read-out: Vss): 241 ± 55.3 L
half-life ([1]; human, whole blood (dried blood spot), intravenous, 570 mg/m2, 570 mg/m^2, cycle 1 Day 1, n = 20, mean ± SD, read-out: t1/2z (converted)): 22.8 ± 9.47 h
AUC [1, 9]: 35100 ± 15000 ng·h/mL
Cmax [1, 9]: 6330 ± 1270 ng/mL
AUC(0-t) [1, 9]: 35100 ± 14900 ng·h/mL
clearance ([1]; human, whole blood (dried blood spot), intravenous, 570 mg/m2, 570 mg/m^2, cycle 1 Day 22, N = 17, mean ± SD, read-out: CL (converted)): 482 mL/min
Vd ([1]; human, whole blood (dried blood spot), intravenous, 570 mg/m2, 570 mg/m^2, cycle 1 Day 22, N = 17, mean ± SD, read-out: Vss): 287 ± 105 L
half-life ([1]; human, whole blood (dried blood spot), intravenous, 570 mg/m2, 570 mg/m^2, cycle 1 Day 22, N = 17, mean ± SD, read-out: t1/2z (converted)): 21.2 ± 4.94 h
half-life ([1]; human, whole blood (dried blood spot), intravenous, 570 mg/m2, at the RD (570 mg/m^2), read-out: elimination half-life (converted)): ~21 h
Vd ([1]; human, whole blood (dried blood spot), intravenous, 570 mg/m2, at the RD (570 mg/m^2), read-out: volume of distribution at steady state): ~253 L
clearance ([1]; qualitative): medium
effect of dose on total body clearance (CL) ([1]; statistical analysis, P = 0.25): no significant effect
effect of dose on CL at steady state (CLs) ([1]; statistical analysis, P = 0.79): no significant effect
toxicity profile ([2]; preclinical): acceptable toxicity profile
c-Met kinase inhibition in xenograft tumors [2, 10]: c-Met kinase inhibition
tumor regression [2, 10]: dose-dependent tumor regression
